17 molecules from patent US8222244B2, “Staurosporine derivatives as inhibitors of FLT3 receptor tyrosine kinase activity” (Novartis AG, priority 2001, dated 2012) can be followed below.

This test deals with T1, human Flt-3 (Homo sapiens, UniProt P36888).
T1 construct: expresses the amino acid region amino acids 563-993 of the intra-cytoplasmic kinase domains of human Flt-3; made in house; host or cells: Sf9 insect cells (baculovirus, pFbacG01 donor vector)
T1 sequence (P36888 563-993): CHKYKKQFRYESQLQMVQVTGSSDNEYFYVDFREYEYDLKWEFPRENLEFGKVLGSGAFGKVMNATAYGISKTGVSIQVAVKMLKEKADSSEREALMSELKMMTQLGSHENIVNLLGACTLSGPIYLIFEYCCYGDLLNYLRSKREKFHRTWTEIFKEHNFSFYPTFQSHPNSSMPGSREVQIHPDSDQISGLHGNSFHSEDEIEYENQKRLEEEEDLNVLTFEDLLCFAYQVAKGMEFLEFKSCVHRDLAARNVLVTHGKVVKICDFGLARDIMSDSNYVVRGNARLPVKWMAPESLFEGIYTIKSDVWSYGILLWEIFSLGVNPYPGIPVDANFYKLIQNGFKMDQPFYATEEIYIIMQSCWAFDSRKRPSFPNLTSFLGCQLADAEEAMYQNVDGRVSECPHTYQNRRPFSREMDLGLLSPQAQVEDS
The experiment in a line: Tyrosine protein kinase assay with purified GST-Flt-3 (33P incorporation). The test is classed as biochemical. The settings on record: at a 1.0 micromolar concentration. Here is the method:
ATP into appropriate substrates.
The coding sequences for the cytoplasmic domain of Flt-3 was amplified by PCR from human c-DNA libraries (Clontech). The amplified DNA fragments and the pFbacG01 vector were made compatible for ligation by digestion with BamH1 and Hind III. […] The production of the viruses, the expression of proteins in Sf9 cells and the purification of the GST-fused proteins were performed as following:
(Generation of Bac- to Bac GST-fusion vectors); pFbacG01, pFbacGST2T and pFbacGSTx3 Bac-to-Bac™ donor vectors were generated from pAcG1, pAcG2T and pAcG3X respectively, which facilitate the expression of GST-fusion proteins with the possibility of cleavage with thrombin (pFbacGT2) or factor Xa (pFbacGSTx3) while pFbacG01 expresses no proteolytic cleavage site. These were generated in house by isolation of the DNA fragment containing the gene for GST with the C-terminal protease and restriction sites by restriction enzyme digestion of the relevant PharMingen baculovirus donor vector with EcoRV and EcoRI. This EcoRV/EcoRI fragment was ligated into the pFastBac1 vector which had been restriction digested with BamHI, blunt-ended by Klenow reaction and subsequently digested with EcoRI to generate a blunt-ended/EcoRI vector. (Production of virus); Transfer vectors containing the kinase domains were transfected into the DH10Bac cell line (GIBCO) and plated on selective agar plates. Colonies without insertion of the fusion sequence into the viral genome (carried by the bacteria) are blue. Single white colonies were picked and viral DNA (bacmid) isolated from the bacteria by standard plasmid purification procedures. Sf9 cells or Sf21 cells were then transfected in 25 cm^2 flasks with the viral DNA using Cellfectin reagent. (Determination of small scale protein expression in Sf9 cells); Virus containing media was collected from the transfected cell culture and used for infection to increase its titer. Virus containing media obtained after two rounds of infection was used for large-scale protein expression. For large-scale protein expression 100 cm^2 round tissue culture plates were seeded with 5×10^7 cells/plate and infected with 1 mL of virus-containing media (approx. 5 MOIs). After 3 days the cells were scraped off the plate and centrifuged at 500 rpm for 5 min. Cell pellets from 10-20, 100 cm^2 plates, were resuspended in 50 mL of ice-cold lysis buffer (25 mMTris-HCl, pH7.5, 2 mMEDTA, 1% NP-40, 1 mM DTT, 1 mMP MSF). The cells were stirred on ice for 15 min and then centrifuged at 5000 rpms for 20 min.
ATP 0.1 μCi). […] ATP into appropriate substrates. […] Subsequently, 40 μL of the reaction mixture were transferred onto Immobilon-PVDF membrane (Millipore, Bedford, Mass., USA) previously soaked for 5 min with methanol, rinsed with water, then soaked for 5 min with 0.5% H3PO4 and mounted on vacuum manifold with disconnected vacuum source. After spotting all samples, vacuum was connected and each well rinsed with 200 μL 0.5% H3PO4. Membranes were removed and washed 4× on a shaker with 1.0% H3PO4, once with ethanol. Membranes were counted after drying at ambient temperature, mounting in Packard TopCount 96-well frame, and addition of 10 μL/well of Microscint™ (Packard). […] One unit of protein kinase activity is defined as 1 nmole of ^33P ATP transferred from [γ^33P] ATP to the substrate protein per minute per mg of protein at 37° C.

In the case of `COC1C(=O)CC2OC1(C)n1c3ccccc3c3c4c(c5c6ccccc6n2c5c31)C(=O)NC4` [178276-05-6, (9S,10S,13R)-2,3,9,10,12,13-Hexahydro-10-methoxy-9-methyl-9,13-epoxy-1H,11H-diindolo[1,2,3-gh:3′,2′,1′-lm]pyrrolo[3,4-j][1,7]benzodiazonine-1,11-dione], the “Flt3 Inhibition (percent inhibition of Flt3 kinase activity)” value is recorded as 88%.

`CO[C@@H]1[C@H](N(C)C(=O)c2ccccc2)C[C@H]2O[C@]1(C)n1c3ccccc3c3c4c(c5c6ccccc6n2c5c31)C(=O)NC4O` (some centres unmarked) [179237-49-1, N-(2,3,10,11,12,13-Hexahydro-3-hydroxy-10-methoxy-9-methyl-1-oxo-9,13-epoxy-1H,9H-diindolo[1,2,3-gh:3′,2′,1′-lm]pyrrolo[3,4-j][1,7]benzodiazonin-11-yl)-N-methyl-benzamide]: the “Flt3 Inhibition (percent inhibition of Flt3 kinase activity)” value is given as 41%. With `COC1C(=NOC(C)=O)CC2OC1(C)n1c3ccccc3c3c4c(c5c6ccccc6n2c5c31)C(=O)NC4` (stereo not drawn) [187457-78-9, [9S-(9a,10b,13a)]-2,3,9,10,12,13-Hexahydro-10-methoxy-9-methyl-9,13-epoxy-1H,11H-diindolo[1,2,3-gh:3′,2′,1′-lm]pyrrolo[3,4-j][1,7]benzodiazonine-1,11-dione, 11-(O-acetyloxime)], the “Flt3 Inhibition (percent inhibition of Flt3 kinase activity)” value stood at 77%. As to `CNC1CC2OC(C)(C1O)n1c3ccccc3c3c4c(c5c6ccccc6n2c5c31)C(=O)NC4` [239785-03-6, (9R,10S,11S,13S)-2,3,10,11,12,13-Hexahydro-10-hydroxy-9-methyl-11-(methylamino)-,9,13-epoxy-1H,9H-diindolo[1,2,3-gh:3′,2′,1′-lm]pyrrolo[3,4-j][1,7]benzodiazonin-1-one], the “Flt3 Inhibition (percent inhibition of Flt3 kinase activity)” value is 100%.

For the molecule “(2,3,10,11,12,13-hexahydro-10-methoxy-9-methyl-1-oxo-9,13-epoxy-1H,9H-diindolo[1,2,3-gh:3′,2′,1′-lm]pyrrolo[3,4-j][1,7]benzodiazonin-11-yl)methyl-carbamic acid, phenylmethyl ester [159404-67-8]”, the “Flt3 Inhibition (percent inhibition of Flt3 kinase activity)” value is recorded as 64%. As for “(9a,10b,11b,13a)-11-[(N-Acetyl-1-deoxymuramoyl)methylamino]-2,3,10,11,12,13-hexahydro-10-methoxy-9-methyl-9,13-epoxy-1H,9H-diindolo[1,2,3-gh:3′,2′,1′-lm]pyrrolo[3,4-j][1,7]benzodiazonin-1-one [149622-63-9]”, the “Flt3 Inhibition (percent inhibition of Flt3 kinase activity)” value came to 98%. For “(9a,10b,11b,13a)-11-[(N-Acetyl-4,6-di-O-acetyl-a-muramoyl)methylamino]-2,3,10,11,12,13-hexahydro-10-methoxy-9-methyl-9,13-epoxy-1H,9H-diindolo[1,2,3-gh:3′,2′,1′-lm]pyrrolo[3,4-j][1,7]benzodiazonin-1-one [149622-65-1]”, the “Flt3 Inhibition (percent inhibition of Flt3 kinase activity)” value is on record as 74%. For “(9a,10b,11b,13a)-11-[(N-Acetyl-6-O-acetyl-1-deoxymuramoyl)methylamino]-2,3,10,11,12,13-hexahydro-10-methoxy-9-methyl-, 11-[(N-acetyl-6-O-acetyl-1-deoxymuramoyl)methylamino]-2,3,10,11,12,13-hexahydro-10-methoxy-9-methyl-9,13-epoxy-1H,9H-diindolo[1,2,3-gh:3′,2′,1′-lm]pyrrolo[3,4-j][1,7]benzodiazonin-1-one [149622-68-4]”, the “Flt3 Inhibition (percent inhibition of Flt3 kinase activity)” value worked out at 93%. Turning to “(9a,10b,11b,13a)-11-[(N-Acetyl-6-amino-1,6-dideoxymuramoyl)methylamino]-2,3,10,11,12,13-hexahydro-10-methoxy-9-methyl-9,13-epoxy-1H,9H-diindolo[1,2,3-gh:3′,2′,1′-lm]pyrrolo[3,4-j][1,7]benzodiazonin-1-one, monomethanesulfonate [150654-80-1]”, the “Flt3 Inhibition (percent inhibition of Flt3 kinase activity)” value was found to be 97%. Regarding “(9a,10b,11b,13a)-11-[(N-Acetyl-6-amino-6-deoxy-a-isomuramoyl)methylamino]-2,3,10,11,12,13-hexahydro-10-methoxy-9-methyl-9,13-epoxy-1H,9H-diindolo[1,2,3-gh:3′,2′,1′-lm]pyrrolo[3,4-j][1,7]benzodiazonin-1-one [149622-56-0]”, the “Flt3 Inhibition (percent inhibition of Flt3 kinase activity)” value is 100%.

Consider “(9a,10b,11b,13a)-11-[(N-Acetyl-6-amino-6-deoxy-b-muramoyl)methylamino]-2,3,10,11,12,13-hexahydro-10-methoxy-9-methyl-9,13-epoxy-1H,9H-diindolo[1,2,3-gh:3′,2′,1′-lm]pyrrolo[3,4-j][1,7]benzodiazonin-1-one [149713-77-9]”, for which the “Flt3 Inhibition (percent inhibition of Flt3 kinase activity)” value came to 96%.

Turning to “(9a,10b,11b,13a)-11-[(N-Acetyl-a-muramoyl)methylamino]-2,3,10,11,12,13-hexahydro-10-methoxy-9-methyl-9,13-epoxy-1H,9H-diindolo[1,2,3-gh:3′,2′,1′-lm]pyrrolo[3,4-j][1,7]benzodiazonin-1-one [149622-53-7]”, the “Flt3 Inhibition (percent inhibition of Flt3 kinase activity)” value turned out to be 91%. For the molecule “(9a,10b,11b,13a)-11-[(N-Acetyl-a-normuramoyl)methylamino]-2,3,10,11,12,13-hexahydro-10-methoxy-9-methyl-9,13-epoxy-1H,9H-diindolo[1,2,3-gh:3′,2′,1′-lm]pyrrolo[3,4-j][1,7]benzodiazonin-1-one [149622-55-9]”, the “Flt3 Inhibition (percent inhibition of Flt3 kinase activity)” value worked out at 85%.

With “(9a,10b,11b,13a)-11-[[N-Acetyl-1-O-(phenylmethyl)-a-isomuramoyl]methylamino]-2,3,10,11,12,13-hexahydro-10-methoxy-9-methyl-9,13-epoxy-1H,9H-diindolo[1,2,3-gh:3′,2′,1′-lm]pyrrolo[3,4-j][1,7]benzodiazonin-1-one [149713-64-4]”, the “Flt3 Inhibition (percent inhibition of Flt3 kinase activity)” value was 76%.

On to “(9a,10b,11b,13a)-11-[[N-Acetyl-1-O-(phenylmethyl)-a-muramoyl]methylamino]-2,3,10,11,12,13-hexahydro-10-methoxy-9-methyl-9,13-epoxy-1H,9H-diindolo[1,2,3-gh:3′,2′,1′-lm]pyrrolo[3,4-j][1,7]benzodiazonin-1-one [149622-39-9]”, for which the “Flt3 Inhibition (percent inhibition of Flt3 kinase activity)” value is listed as 72%. With “(9a,10b,11b,13a)-11-[[N-Acetyl-1-deoxy-6-O-[(4-methylphenyl)sulfonyl]muramoyl]methylamino]-2,3,10,11,12,13-hexahydro-10-methoxy-9-methyl-, 9,13-epoxy-1H,9H-diindolo[1,2,3-gh:3′,2′,1′-lm]pyrrolo[3,4-j][1,7]benzodiazonin-1-one [149622-70-8]”, the “Flt3 Inhibition (percent inhibition of Flt3 kinase activity)” value came to 67%. Regarding “(9a,10b,11b,13a)-11-[[N-Acetyl-4,6-O-(1-methylethylidene)-1-O-(phenylmethyl)-a-isomuramoyl]methylamino]-2,3,10,11,12,13-hexahydro-9-methyl-10-methoxy-9,13-epoxy-1H,9H-diindolo[1,2,3-gh:3′,2′,1′-lm]pyrrolo[3,4-j][1,7]benzodiazonin-1-one [149622-59-3]”, the “Flt3 Inhibition (percent inhibition of Flt3 kinase activity)” value is recorded as 77%.
